Converted amounts (≈) assume the structure as drawn. Like-named read-outs stand apart in the source and are kept apart here.
Assays:
Type in all cases: cell-based
[1] = system: Staphylococcus aureus 100 (ATCC 29213); assay: MIC, broth microdilution, SA 100
In short: (§1)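 Compounds were serially diluted by liquid handler into Mueller-Hinton broth, inoculated with clinical isolates, and MICs determined by the CLSI broth microdilution procedure.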

[2] = system: Staphylococcus aureus 757 (MRSA); assay: MIC, broth microdilution, SA 757
In short: as §1

[3] = system: Staphylococcus aureus 2012 (VISA); assay: MIC, broth microdilution, SA 2012
In short: as §1

[4] = system: Staphylococcus epidermidis 835; assay: MIC, broth microdilution, SE 835; details: numeric value, comparison
In short: as §1

[5] = system: Staphylococcus epidermidis 831 (MRSE); assay: MIC, broth microdilution, SE 831
In short: as §1

[6] = system: Enterococcus faecalis 101 (ATCC 29212); assay: MIC, broth microdilution, EFc 101
In short: as §1

[7] = system: Enterococcus faecalis 848 (VRE, Van A); assay: MIC, broth microdilution, EFc 848
In short: as §1

Enterococcus faecium 800 = assay: MIC, broth microdilution, EFcm 800
In short: as §1

[8] = system: Enterococcus faecium 752 (VRE, Van A); assay: MIC, broth microdilution, EFcm 752
In short: as §1

[9] = system: Streptococcus pneumoniae 1195 (ATCC 49619); assay: MIC, broth microdilution, SPNE 1195
In short: as §1

[10] = system: Streptococcus pyogenes 712; assay: MIC, broth microdilution, SPY 712
In short: as §1

[11] = Table 2, in the presence of 0.002% Polysorbate 80, numeric value, comparison
[12] = Table 2, VRE, Van A, in the presence of 0.002% Polysorbate 80, numeric value, comparison

CN[C@H](CC(C)C)C(=O)N[C@H]1C(=O)N[C@@H](CC(N)=O)C(=O)N[C@H]2C(=O)N[C@H]3C(=O)N[C@H](C(=O)N[C@H](C(=O)O)c4cc(O)cc(O)c4-c4cc3ccc4O)[C@H](O)c3ccc(c(Cl)c3)Oc3cc2cc(c3O[C@@H]2O[C@H](CO)[C@@H](O)[C@H](O)[C@H]2O[C@H]2C[C@](C)(N)[C@H](O)[C@H](C)O2)Oc2ccc(cc2Cl)[C@H]1O [Vancomycin, vancomycin, reference compound]
MIC ([1]; Staphylococcus aureus, ATCC29213, read-out: MIC SA 100): 1 µg/mL (≈ 0.69 µM) | MIC SA 100 [1, 11]: 1 µg/mL | MIC ([2]; read-out: MIC SA 757, Table 1, numeric value, comparison): 1 µg/mL (≈ 0.69 µM) | MIC ([2]; read-out: MIC SA 757, Table 2, in the presence of 0.002% Polysorbate 80, numeric value, comparison): 2 µg/mL | MIC ([3]; read-out: MIC SA 2012, Table 1, numeric value, comparison): 8 µg/mL (≈ 5.52 µM) | MIC ([3]; read-out: MIC SA 2012, Table 2, in the presence of 0.002% Polysorbate 80, numeric value, comparison): 4 µg/mL | MIC ([4]; Staphylococcus epidermidis, 835, read-out: MIC SE 835, Table 1): 4 µg/mL (≈ 2.76 µM) | MIC ([4]; Staphylococcus epidermidis, 835, read-out: MIC SE 835, Table 2, in the presence of 0.002% Polysorbate 80): 2 µg/mL | MIC ([5]; Staphylococcus epidermidis, read-out: MIC SE 831): 2 µg/mL (≈ 1.38 µM) | MIC SE 831 [5, 11]: 2 µg/mL | MIC ([6]; Enterococcus faecalis, ATCC29212, read-out: MIC E FC 101): 4 µg/mL (≈ 2.76 µM) | MIC E FC 101 [6, 11]: 4 µg/mL | MIC E FC 848 [7, 12]: >64 µg/mL | MIC ([7]; read-out: MIC E FC 848): > 64 µg/mL | MIC (Enterococcus faecium 800; Enterococcus faecium, 800, read-out: MIC E FCM 800): 1 µg/mL (≈ 0.69 µM) | MIC E FCM 800 (Enterococcus faecium 800; [11]): 1 µg/mL | MIC E FCM 752 [8, 12]: >64 µg/mL | MIC ([8]; read-out: MIC E FCM 752): > 64 µg/mL | MIC ([9]; Streptococcus pneumoniae, ATCC49619, read-out: MIC S PNE 1195): 0.25 µg/mL (≈ 0.173 µM) | MIC S PNE 1195 [9, 11]: 0.25 µg/mL | MIC ([10]; Streptococcus pyogenes, 712, read-out: MIC S PYO 712): 0.5 µg/mL (≈ 0.345 µM) | MIC S PYO 712 [10, 11]: 0.5 µg/mL

Source: patent publication US20120252741A1, “NOVEL SEMI-SYNTHETIC GLYCOPEPTIDES AS ANTIBACTERIAL AGENTS” (priority 2008, published 2012)
